Source: ChEMBL document CHEMBL1153961, “Antiproliferative and antimalarial anthraquinones of Scutia myrtina from the Madagascar forest” (Bioorg Med Chem, 2009)

Tests used:
A2780 = assay: Cytotoxicity against human A2780 cells; assay type: cell-based
Plasmodium falciparum [1] = assay: Antiplasmodial activity against chloroquine-resistant Plasmodium falciparum Dd2 by SYBR green assay; assay type: functional, organism-based
[2] = Selectivity index, ratio of IC50 for human A2780 cells to IC50 for Plasmodium falciparum Dd2; assay type: toxicity, cell-based; conditions: A2780 cells versus Plasmodium falciparum Dd2, read-out: Ratio IC50
Plasmodium falciparum [3] = assay: Antiplasmodial activity against chloroquine-resistant Plasmodium falciparum FCM29 by SYBR green assay; assay type: functional, organism-based
[4] = Selectivity index, ratio of IC50 for human A2780 cells to IC50 for Plasmodium falciparum FCM29; assay type: toxicity, cell-based; conditions: A2780 cells versus Plasmodium falciparum FCM29, read-out: Ratio IC50

SMILES | IC50 (A2780) [µM] | IC50 (Plasmodium falciparum [1]) [µM] | selectivity ratio [2] | IC50 (Plasmodium falciparum [3]) [µM] | selectivity ratio [4]
CCC(C)C(=O)OC1(c2ccc3c(c2O)C(=O)c2c(cc(O)c(C(=O)OC)c2C)C3=O)c2cccc(O)c2C(=O)c2c1cc(O)c(C(=O)OC)c2C (stereo unspecified) [SCUTIANTHRAQUINONE A] | 7.6 | 1.23 | 6.1 | 1.2 | 6.3
COC(=O)c1c(O)cc2c(c1C)C(=O)c1c(ccc(C3(OC(=O)C(C)C)c4cccc(O)c4C(=O)c4c3cc(O)c(C(=O)OC)c4C)c1O)C2=O (stereo unspecified) [SCUTIANTHRAQUINONE B] | 5.8 | 1.14 | 5.1 | 5.4 | 1.1
CC(=O)O[C@H]1C(=O)[C@@]2(C)[C@H]([C@H](OC(=O)c3ccccc3)[C@]3(O)C[C@H](OC(=O)[C@H](O)[C@@H](NC(=O)c4ccccc4)c4ccccc4)C(C)=C1C3(C)C)[C@]1(OC(C)=O)CO[C@@H]1C[C@@H]2O [PACLITAXEL] | 0.014 | – | – | – | –
COC(=O)c1c(O)cc2c(c1C)C(=O)c1c(O)cccc1C2=O [ALOESAPONARIN I] | > 32 | 5.58 | > 5.7 | 77.6 | –
CCC(C)C(=O)OC1(c2ccc3c(c2O)C(=O)c2c(cc(O)c(C(=O)OC)c2C)C3(OC(=O)C(C)CC)c2ccc3c(c2O)C(=O)c2c(cc(O)c(C(=O)OC)c2C)C3=O)c2cccc(O)c2C(=O)c2c1cc(O)c(C(=O)OC)c2C (stereo unspecified) [SCUTIANTHRAQUINONE D] | 4.3 | 3.68 | 1.2 | 5.6 | 0.8
C=C[C@H]1CN2CC[C@H]1C[C@H]2[C@H](O)c1ccnc2ccc(OC)cc12 [QUININE] | – | – | – | 0.22 | –
COC(=O)c1c(O)cc2c(c1C)C(=O)c1c(ccc(C3(O)c4cccc(O)c4C(=O)c4c3cc(O)c(C(=O)OC)c4C)c1O)C2=O (stereo unspecified) [SCUTIANTHRAQUINONE C] | > 16 | 3.14 | > 5 | 15.4 | > 1
